Legend:
[1] = CD spectroscopy, helicity in benign buffer and in 50% TFE; type: physicochemical; settings: for [θ]222, mean residue molar ellipticity, benign / [θ]222, mean residue molar ellipticity, 50% TFE: CD at 222 nm, peptide 75 μM; for [θ]222, mean residue molar ellipticity, benign / [θ]222, mean residue molar ellipticity, 50% TFE / % helix, 50% TFE: 25 °C; for [θ]222, mean residue molar ellipticity, benign: KP buffer (100 mM KCl, 50 mM K2HPO4/KH2PO4, pH 7.0); for [θ]222, mean residue molar ellipticity, 50% TFE / % helix, 50% TFE: KP buffer diluted 1:1 (v/v) with TFE; for % helix, 50% TFE / % helix, benign: relative to the molar ellipticity of peptide V16E in 50% TFE; for % helix, benign: KP buffer pH 7.0, 25 °C
Protocol: The secondary structures of peptides were determined in benign buffer and in a hydrophobic environment (50% trifluoroethanol, TFE) to mimic the hydrophobic environment of the membrane. […] The principle of side chain interaction at the i to i + 3 and i to i + 4 positions has been used to promote α-helix stability, for example, the incorporation of Lys and Glu residues to stabilize electrostatic attractions. Thus, the helicity of peptide V16E in the presence of 50% TFE that presented the greatest value among all analogs should rely on the contribution of the electrostatic attraction of the side chain of K13 and E16, which stabilizes the helix. The relative helicity is 100% for peptide V16E in 50% TFE, showing the importance of the salt bridges of K13 and E16 to stabilize the helical structure. In general, subtle side-chain alterations by single amino acid substitutions made no significant changes on secondary structures both in aqueous and in hydrophobic environments (Table 2).
Circular dichroism spectra were measured with a 0.02 cm path length quartz cuvette on a Jasco J-810 spectropolarimeter (Jasco, Tokyo, Japan) at 25 °C. Data were collected from 250 to 190 nm at a sensitivity of 100 millidegrees, response time of 1 s, bandwidth of 1.0 nm and a scan speed of 100 nm/min. Peptides were measured at a concentration of 75 μM in a benign buffer (50 mM KH2PO4/K2HPO4, 100 mM KCl, pH 7) or the benign buffer mixed with 50% 2,2,2-trifluoroethanol (TFE). The mean residue molar ellipticities were calculated using the equation [θ] = θ/10lcMn, where θ is the ellipticity in millidegrees, l is the optical path length of the cuvette in centimeters, cM is the peptide concentration in mole/liter and n is the number of residues in the peptide.

[2] = Dansyl-polymyxin B displacement assay (LPS binding affinity); set-up: species or system E. coli; settings: LPS 3 μg/mL in 5 mM HEPES pH 7.2, 25 °C, fluorescence; result in words, Figure 5
Protocol: As most of the outer membrane is LPS, the affinity of peptide analogs to LPS of E. coli was further detected by dansyl-polymyxin B displacement assay. As it is the polar face of the molecule that binds LPS, and all the peptides V16A, V16S, V16G and P have the same number of positively charged residues on the polar face, they would be expected to have similar effects on LPS affinity (Figure 5).
Dansyl-polymyxin B was synthesized, purified and quantified as reported. It was then dissolved in HEPES buffer (5 mM, pH 7.2) at the concentration of 100 μM and the final concentration of LPS is 3 μg/mL in the same buffer. Fluorescence measurements were run on a Shimadzu RF-5301 spectrofluorometer using a 3 mL quartz cuvette with an excitation wavelength of 350 nm and an emission wavelength of 420 nm at 25 °C. For displacement assay, 15 μL of peptide solution (10 mg/mL) was titrated into the cuvette containing 2 mL LPS and 0.25 mL dansyl-polymyxin B, and the decrease in the observed fluorescence (percent inhibition) was recorded.

human red blood cells = assay: Hemolytic activity; type: cell-based; settings: peptide 1,000 μg/mL, 1% human erythrocytes in PBS, 37 °C for 4 h, absorbance at 540 nm, 100% = distilled water
Protocol: Peptide samples were serially diluted using phosphate-buffered saline (PBS) in 96-well plates (round-bottom) to give a volume of 60 μL of the sample solution in each well. Human erythrocytes that had been anticoagulated using EDTAK2 were collected by centrifugation (1,000 ×g) for 5 min, washed twice with PBS, then diluted to a concentration of 2% in PBS. The erythrocytes (60 μL of 2% solution) were added to each well to achieve a final concentration of 1% human erythrocytes per well, and the reactions were incubated at 37 °C for 4 h. The plates were then centrifuged for 10 min at 3000 rpm and the supernatant (80 μL) was transferred to a 96-well plate (flat-bottom). The release of hemoglobin was determined by measuring the absorbance of the supernatant at 540 nm. Peptide samples were diluted in a 2-fold series to determine the minimum concentration at which hemolysis occurred. Erythrocytes in PBS and distilled water were used as controls of 0% and 100% hemolysis, respectively. Hemolysis percentage was calculated by the absorbance of peptide at the concentration of 1,000 μg/mL and compared with the 100% hemolysis.

Molecule	[θ]222, mean residue molar ellipticity, benign [1]	[θ]222, mean residue molar ellipticity, 50% TFE [1]	% helix, 50% TFE [1] [%]	% helix, benign [1] [%]	Affinity to LPS (inhibition of dansyl-polymyxin B binding) [2]	Hemolysis Percentage (human red blood cells) [%]
Ac-KWKSFLKTFKSAKKTKLHTALKAISS-NH2 [Peptide V16K]	−1,990 degree·cm^2·dmol^−^1	−29,313 degree·cm^2·dmol^−^1	97.5	6.6	more affinity than the Ser- or Gly-substituted peptides	
CC[C@H](C)[C@H](NC(=O)[C@H](C)NC(=O)[C@H](CCCCN)NC(=O)[C@H](CC(C)C)NC(=O)[C@H](C)NC(=O)[C@@H](NC(=O)[C@H](Cc1cnc[nH]1)NC(=O)[C@H](CC(C)C)NC(=O)[C@@H](NC(=O)[C@@H](NC(=O)[C@H](CCCCN)NC(=O)[C@H](CCCCN)NC(=O)[C@H](C)NC(=O)[C@H](CO)NC(=O)[C@H](CCCCN)NC(=O)[C@H](Cc1ccccc1)NC(=O)[C@@H](NC(=O)[C@H](CCCCN)NC(=O)[C@H](CC(C)C)NC(=O)[C@H](Cc1ccccc1)NC(=O)[C@H](CO)NC(=O)[C@H](CCCCN)NC(=O)[C@H](Cc1c[nH]c2ccccc12)NC(=O)[C@H](CCCCN)NC(C)=O)[C@@H](C)O)[C@@H](C)O)C(C)C)[C@@H](C)O)C(=O)N[C@@H](CO)C(=O)N[C@@H](CO)C(N)=O [P]	−2,592 degree·cm^2·dmol^−^1	−29,726 degree·cm^2·dmol^−^1	98.9	8.6		28.3
